Here are results for five compounds from ChEMBL document CHEMBL5126553, “Dentithecamides A-H, Diacylated Zoanthoxanthin Derivatives with PAX3-FOXO1 Inhibitory Activity from the Hydroid Dentitheca habereri” (J Nat Prod, 2022).

Active and inactive are the calls of the source. The rule behind the calls is not given here.

In one series the target is PAX3/FOXO1 (Homo sapiens, UniProt P23760+Q12778). Put plainly: Inhibition of PAX3-FOXO1 driven transcriptional activity in human Rh4 cells transfected with ALK-Luc construct incubated for 24 hrs by luciferase assay. It is filed as cell-based.
PAX3/FOXO1, sequence (Q12778 whole entry): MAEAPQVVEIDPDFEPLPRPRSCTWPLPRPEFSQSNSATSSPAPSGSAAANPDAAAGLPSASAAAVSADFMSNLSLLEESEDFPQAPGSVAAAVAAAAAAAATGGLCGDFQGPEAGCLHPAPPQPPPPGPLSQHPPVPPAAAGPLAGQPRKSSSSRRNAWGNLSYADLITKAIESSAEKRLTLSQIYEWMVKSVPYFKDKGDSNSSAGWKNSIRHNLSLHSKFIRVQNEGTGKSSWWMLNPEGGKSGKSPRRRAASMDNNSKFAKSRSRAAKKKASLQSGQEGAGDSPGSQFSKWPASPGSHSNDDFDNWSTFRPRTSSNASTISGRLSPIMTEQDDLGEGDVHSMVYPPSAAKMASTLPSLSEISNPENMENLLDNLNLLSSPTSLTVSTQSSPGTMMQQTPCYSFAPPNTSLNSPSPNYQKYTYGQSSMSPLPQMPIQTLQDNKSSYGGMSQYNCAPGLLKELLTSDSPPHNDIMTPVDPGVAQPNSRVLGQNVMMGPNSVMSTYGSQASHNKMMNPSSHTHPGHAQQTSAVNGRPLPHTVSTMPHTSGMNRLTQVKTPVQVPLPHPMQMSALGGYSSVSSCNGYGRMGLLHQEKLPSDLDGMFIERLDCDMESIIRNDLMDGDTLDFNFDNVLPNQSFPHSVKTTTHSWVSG
PAX3/FOXO1, sequence (P23760 whole entry): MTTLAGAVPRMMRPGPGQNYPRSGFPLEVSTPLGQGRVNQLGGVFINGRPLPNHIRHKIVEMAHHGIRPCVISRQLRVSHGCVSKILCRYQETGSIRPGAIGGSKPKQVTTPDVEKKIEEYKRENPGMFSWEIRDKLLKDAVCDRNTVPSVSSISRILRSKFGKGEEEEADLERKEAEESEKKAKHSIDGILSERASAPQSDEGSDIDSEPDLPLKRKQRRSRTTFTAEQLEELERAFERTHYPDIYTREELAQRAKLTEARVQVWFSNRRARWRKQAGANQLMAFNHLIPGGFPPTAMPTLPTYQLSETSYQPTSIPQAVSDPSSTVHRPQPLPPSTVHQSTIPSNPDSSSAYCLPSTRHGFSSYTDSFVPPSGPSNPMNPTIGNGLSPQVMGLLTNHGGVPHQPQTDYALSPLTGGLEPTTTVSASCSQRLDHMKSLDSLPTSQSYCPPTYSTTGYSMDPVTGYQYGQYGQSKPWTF
The nature of series [1]: Cytotoxicity against human Rh4 cells transfected with CMV-Luc construct assessed as inhibition of cell growth at 100 uM by luciferase assay. Type of series: toxicity, cell-based. The following applies: rh4, 100 µM.
The next series concerns Rh4. Kind of series: Upregulation of TNF gene expression in human Rh4 cells. Type of series: functional, cell-based.
For series [2], the target named is T1, PAX3/FOXO1 (Homo sapiens) (UniProt Q12778+P23760). Kind of series: Inhibition of PAX3-FOXO1 driven transcriptional activity in human Rh4 cells assessed as upregulation of ID1 gene expression at 20 uM incubated for 6 hrs by GSEA analysis. It is filed as cell-based.
T1 sequence (P23760 whole entry, looked up): as the sequence (P23760 whole entry) above
T1 sequence (Q12778 whole entry, looked up): as the sequence (Q12778 whole entry) above
For series [3], the target named is T1, PAX3/FOXO1 (Homo sapiens). Kind of series: Inhibition of PAX3-FOXO1 driven transcriptional activity in human Rh4 cells assessed as upregulation of KLF10 gene expression at 20 uM incubated for 6 hrs by GSEA analysis. Type of series: cell-based.
Series [4] deals with T1, PAX3/FOXO1 (Homo sapiens). Kind of series: Inhibition of PAX3-FOXO1 driven transcriptional activity in human Rh4 cells assessed as upregulation of GADD45B gene expression at 20 uM incubated for 6 hrs by GSEA analysis. Type of series: cell-based.
Series [5] concerns the target T1, PAX3/FOXO1 (Homo sapiens). Put plainly: Inhibition of PAX3-FOXO1 driven transcriptional activity in human Rh4 cells assessed as upregulation of KIT gene expression at 20 uM incubated for 6 hrs by GSEA analysis. It is filed as cell-based.
The target in series [6] is T1, PAX3/FOXO1 (Homo sapiens). Kind of series: Inhibition of PAX3-FOXO1 driven transcriptional activity in human Rh4 cells assessed as upregulation of TNFRSF12A gene expression at 20 uM incubated for 6 hrs by GSEA analysis. Type of series: cell-based.
For series [7], the target named is T1, PAX3/FOXO1 (Homo sapiens). Kind of series: Inhibition of PAX3-FOXO1 driven transcriptional activity in human Rh4 cells assessed as upregulation of VEGFA gene expression at 20 uM incubated for 6 hrs by GSEA analysis. Type of series: cell-based.
Series [8] addresses T1, PAX3/FOXO1 (Homo sapiens). Kind of series: Inhibition of PAX3-FOXO1 driven transcriptional activity in human Rh4 cells assessed as upregulation of BCL2L1 gene expression at 20 uM incubated for 6 hrs by GSEA analysis. It is filed as cell-based.
The target of series [9] is T1, PAX3/FOXO1 (Homo sapiens). Put plainly: Inhibition of PAX3-FOXO1 driven transcriptional activity in human Rh4 cells assessed as upregulation of SERPINE1 gene expression at 20 uM incubated for 6 hrs by GSEA analysis. It is filed as cell-based.
Series [10] deals with T1, PAX3/FOXO1 (Homo sapiens). Put plainly: Inhibition of PAX3-FOXO1 driven transcriptional activity in human Rh4 cells assessed as upregulation of EPHA2 gene expression at 20 uM incubated for 6 hrs by GSEA analysis. It is filed as cell-based.
For series [11], the target named is T1, PAX3/FOXO1 (Homo sapiens). Kind of series: Inhibition of PAX3-FOXO1 driven transcriptional activity in human Rh4 cells assessed as upregulation of TIMP3 gene expression at 20 uM incubated for 6 hrs by GSEA analysis. It is filed as cell-based.
Series [12] has as its target T1, PAX3/FOXO1 (Homo sapiens). Kind of series: Inhibition of PAX3-FOXO1 driven transcriptional activity in human Rh4 cells assessed as upregulation of SOX9 gene expression at 20 uM incubated for 6 hrs by GSEA analysis. It is filed as cell-based.
For series [13], the target named is T1, PAX3/FOXO1 (Homo sapiens). Kind of series: Inhibition of PAX3-FOXO1 driven transcriptional activity in human Rh4 cells assessed as upregulation of LBH gene expression at 20 uM incubated for 6 hrs by GSEA analysis. It is filed as cell-based.
Series [14] has as its target T1, PAX3/FOXO1 (Homo sapiens). Kind of series: Inhibition of PAX3-FOXO1 driven transcriptional activity in human Rh4 cells assessed as upregulation of IL-11 gene expression at 20 uM incubated for 6 hrs by GSEA analysis. Type of series: cell-based.
Series [15] addresses T1, PAX3/FOXO1 (Homo sapiens). Put plainly: Inhibition of PAX3-FOXO1 driven transcriptional activity in human Rh4 cells assessed as upregulation of DGKD gene expression at 20 uM incubated for 6 hrs by GSEA analysis. Type of series: cell-based.

The term IC50 denotes the concentration needed to halve the response being measured. Read a low IC50 as greater potency in that assay. In turn, `CC[C@H](C)C(=O)Nc1nc2c([nH]1)C(C)c1[nH]c(NC(=O)/C=C/c3ccccc3)nc1CC2` (stereo partly specified) returned an IC50 at PAX3/FOXO1 of 42 µM. The Activity entry in series [1] is “Toxic”.
On to `CC[C@H](C)C(=O)Nc1nc2c([nH]1)C(C)c1[nH]c(NC(=O)c3ccccc3)nc1CC2` (stereo partly specified), for which the half-maximal inhibitory concentration (IC50) against PAX3/FOXO1 came out at 26 µM. The Activity result in series [1] is on record as “Toxic”.
In turn, `CC(C)C(=O)Nc1nc2c([nH]1)C(C)c1[nH]c(NC(=O)c3ccccc3)nc1CC2` (stereo unspecified) returned an IC50 on PAX3/FOXO1 of 67 µM. Besides, the Activity result in [1] was “Toxic”.
As for `CC1c2[nH]c(NC(=O)c3ccccc3)nc2CCc2nc(NC(=O)c3ccccc3)[nH]c21`, the result in the series on Rh4 was Active. Further, the midpoint of inhibition against PAX3/FOXO1, the IC50, lay at 13 µM. The Activity entry in [1] is listed as “Toxic”.
Turning to `CC(C)=CC(=O)Nc1nc2c([nH]1)C(C)c1[nH]c(NC(=O)c3ccccc3)nc1CC2` (stereo unspecified), the result with Rh4 was Active. Besides, the inhibition result in series [2], in series [3], in [4], in [5], in series [6] and in series [7] was “Active” each time. In addition, the inhibition result in [8], in series [9], in [10], in [11], in [12] and in series [13] was “Active” each time. Besides, the inhibition result in series [14] and in [15] was “Active” in each case. The compound also had a concentration for half-maximal inhibition (IC50) on PAX3/FOXO1 of 17 µM. Further, the Activity result in series [1] was “Toxic”.
